One test concerns the target T1, alpha-1-receptor (Rattus norvegicus, UniProt P15823).
T1 construct: rat liver homogenates; from tissue; host or cells: rat liver homogenates
T1 sequence (P15823 1-515): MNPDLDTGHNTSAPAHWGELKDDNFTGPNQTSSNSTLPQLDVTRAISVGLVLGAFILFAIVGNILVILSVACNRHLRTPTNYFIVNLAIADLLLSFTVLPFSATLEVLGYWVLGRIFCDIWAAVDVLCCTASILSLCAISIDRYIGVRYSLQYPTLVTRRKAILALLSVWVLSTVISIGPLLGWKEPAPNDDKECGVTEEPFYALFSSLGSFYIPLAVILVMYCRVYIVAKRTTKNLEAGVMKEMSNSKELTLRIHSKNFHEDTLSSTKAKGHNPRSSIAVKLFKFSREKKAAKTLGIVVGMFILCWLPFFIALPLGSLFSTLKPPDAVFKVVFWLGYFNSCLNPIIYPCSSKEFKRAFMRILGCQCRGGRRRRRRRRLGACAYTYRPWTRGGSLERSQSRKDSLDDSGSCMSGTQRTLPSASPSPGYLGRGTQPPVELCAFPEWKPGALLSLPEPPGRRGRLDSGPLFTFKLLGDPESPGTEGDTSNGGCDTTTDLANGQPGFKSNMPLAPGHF
Briefly: Radioligand binding, alpha-1 adrenoceptor, rat liver homogenates, [^3 H]-prazosin. As to the method:
(§1) The compounds were assessed for alpha-adrenergic receptor subtype selectivity by use of radioligand binding techniques as described previously (DeBernardis et.al. J. Med. Chem. 28, 1398 (1985)).

In another test the target is alpha-2-receptor. Briefly: Radioligand binding, alpha-2 adrenoceptor, rat cerebral cortices, [^3 H]-rauwolscine. The conditions noted are these: for Ki: rat cerebral cortices, [^3 H]-rauwolscine; for alpha-2 - Selectivity Ki alpha-1/Ki alpha 2: ratio of Ki alpha-1 to Ki alpha-2. As to the method:
as §1

In another test the test system is intraocular pressure. In words: Effect of topically administered compounds on intraocular pressure of rabbits. The conditions noted are these: 0.3% soln., 0.1 ml topical. Format: in vivo, New Zealand rabbits. As to the method:
The intraocular pressure lowering effects of the compounds were evaluated in unanesthetized male albino, New Zealand rabbits weighing 2.0 to 2.5 kg. The rabbits were placed in Plas Labs restraining devices for the duration of the experiment. Intraocular pressure (IOP) was measured with a Bausch and Lomb Applamatic Tonometer and recorded as the average of three individual readings at each time point in the experiment. Baseline IOP values were established at three time points separated by 30 minutes. Each compound or vehicle was applied topically to the cornea in a volume of 0.1 ml to one eye in each six rabbits. The contralateral eye was untreated. IOP was recorded at 5, 15, 30, 60 and 90 minutes after dosing.

Where a name gives a salt, the structure may show the parent alone.

As to “5-Methoxy-1-(3-phenylpyrrolidino-1-methyl) indane hydrochloride [Example 152]”, the inhibition constant Ki (commonly the equilibrium dissociation constant of an inhibitor or competing ligand from its target) on alpha-1-receptor was found to be 51 nM. At alpha-2-receptor, the Ki came to 4.8 nM and the “alpha-2 - Selectivity Ki alpha-1/Ki alpha 2” value is on record as 11.

As to `CN(CCc1ccccc1)CC1CCCc2cc(O)ccc21` (stereo not shown) [11 (HCl salt)], the inhibitory constant (Ki) turned out to be 254 nM on alpha-1-receptor and 1.7 nM at alpha-2-receptor. Moreover, the “% Change in Intraocular Pressure After Treatment Compared to Untreated Eye” value is given as -38% in the test with intraocular pressure (5 minutes); -55% with intraocular pressure (15 minutes); -54% in the test with intraocular pressure (30 minutes); -44% in the test with intraocular pressure (60 minutes); -20% in the test with intraocular pressure (90 minutes). In addition, the “alpha-2 - Selectivity Ki alpha-1/Ki alpha 2” value in the test with alpha-2-receptor is on record as 149.

With `CN(CCc1cccc(F)c1)CC1CCCc2cc(O)ccc21` (stereo not shown) [Example 10, 1-((N-Methylamino)methyl-N-(2-(m-fluorophenyl)ethyl))6-hydroxy tetralin hydrochloride], the “% Change in Intraocular Pressure After Treatment Compared to Untreated Eye” value in the test on intraocular pressure (5 minutes) is reported as -45%; in the test with intraocular pressure (15 minutes), -31%; with intraocular pressure (30 minutes), -25%; in the test with intraocular pressure (60 minutes) it was -36%; in the test on intraocular pressure (90 minutes), -23%.

Take `CN(CCc1cccs1)CC1CCCc2cc(Cl)ccc21` (stereo not shown) [Example 49, 1-((N-Methylamino)meth-N-(2-(2-thienyl)ethyl))-6-chloro tetralin hydrochloride]: the Ki came out at 1130 nM on alpha-1-receptor and 10 nM at alpha-2-receptor. In the test with alpha-2-receptor, the “alpha-2 - Selectivity Ki alpha-1/Ki alpha 2” value was found to be 113.

Regarding `Fc1ccc2c(c1)CCCC2CN1CCC(c2cccs2)C1` (stereo not shown) [Example 149, 6-Fluoro-1-(3-(2-thienyl)pyrrolidino-1-methyl) tetralin methanesulfonate], the affinity on alpha-1-receptor, expressed as Ki, was 220 nM. Further, on alpha-2-receptor, the affinity corresponds to a Ki of 4.9 nM and the “alpha-2 - Selectivity Ki alpha-1/Ki alpha 2” value is 45.

`CN(C)c1ccc2c(c1)CCCC2CN1CCC(c2ccccc2)C1` (stereo not shown) [Example 188, 6-(N-N'-dimethylamino)-1-(3-phenylpyrrolidino-1-methyl)tetralin dihydrochloride] registered a Ki at alpha-1-receptor of 118 nM. Further, at alpha-2-receptor, the affinity, expressed as Ki, was 0.5 nM and the “alpha-2 - Selectivity Ki alpha-1/Ki alpha 2” value was 236.

The values above are taken from patent US5140040A, “1-aminomethyl-1,2,3,4-tetrahydronaphthalenes” (Abbott Laboratories, priority 1991, dated 1992).
